From patent US20100062067A1, “COMPOSITIONS COMPRISING MACROMOLECULAR ASSEMBLIES OF LIPID AND SURFACTANT” (MALVERN COSMECEUTICS LIMITED, priority 2006, published 2010)
Read-outs that look alike come from different tables or passages of the source. Marks after values point to notes of the source that are not given here. Values belong to the compound of their own block, whether it stands above or below them.

Experiments:
[1] = Visual clarity of surfactant/lipid mixtures in water (Comparative Example 1); type: physicochemical
Method: The appropriate quantity of lipid and surfactant was added to water, which was then warmed to approximately 50° C. and stirred until a uniform emulsion was formed. The mixture was then homogenised for 10 minutes. Percentage values specified in this experiment refer to the weight of the component in question as a proportion of the total weight of the composition. Once the mixtures were prepared they were visually examined to determine whether the surfactant component had solubilized the lipid component in the aqueous medium. The clarity of a mixture was categorized as being clear if there was no significant visible opacity to the naked eye, whereas a mixture was categorized as cloudy if there was significant visible disruption to the passage of light.

[2] = Clarity and turbidity of surfactant/active agent mixtures in water (Comparative Example 2); type: physicochemical; conditions: surfactant 5% w/w + TECA 0.5% w/w in water, visual
[3] = Turbidity of surfactant/lipid compositions, formation of macromolecular complexes (Example 1); type: physicochemical; conditions: 2.5% surfactant, 1% 90H lipid, ca. 0.01% S LPC co-surfactant (as 0.05% SL 80-3) in water, room temperature
Method: Briefly, to the appropriate volume of warm water (ca. 60° C.), SL 80-3 was added. […] 90H was then added gradually, with heating and stirring maintained throughout and for a further 45 minutes after completion.
After mixing the solution was stirred and heated to around 60-70° C.
The required quantity of warm lipid emulsion was slowly added to the warm surfactant solution while stirring with the temperature maintained.

[4] = cited from earlier work; for Average HLB: rough average of manufacturer and literature values
[5] = Solubilisation of piroctone olamine in compositions of the invention (Example 7); type: physicochemical; conditions: dried material (15 g Brij 35P, 6 g 90H, 0.3 g SL 80-3, 4.8 g active) re-solubilized into 50 g of water
Method: Macromolecular assemblies of the present invention which incorporated piroctone olamine were prepared in isopropanol using a method analogous to that described in Example 6 (in that case using ethanol solvent), before being dried by rotary evaporation. The dried material having the composition: • Surfactant—15 g Brij 35P • Lipid—6 g 90H • Co-surfactant (indirectly)—0.3 g SL 80-3 • Active agent—4.8 g piroctone olamine • i.e. total piroctone olamine by weight=18.4%
The dried material was then re-solubilized into 50 g of water to provide a concentrated solution (i.e. using the present invention enables aqueous formulations containing at least 9.6% piroctone olamine by weight to be prepared).

[6] = cited from earlier work
[7] = Reconstitution of dried (freeze-dried or rotary evaporated) formulations in water; type: physicochemical; conditions: rotary evaporated Brij 35P/90H/SL 80-3/progesterone composition
From the text: Of those samples which were dried, all were easily reconstituted into water at the same concentration as prior to drying.
Reconstitution of the freeze-dried composition containing Brij 35P (2.5%), 90H (1%), SL 80-3 (0.05%) and TECA (0.8%), indicated in the table above by #, was successful at a concentration of 32.4% by dry weight (i.e. an overall concentration of 6% active in the final aqueous solution).
The rotary evaporated composition containing Brij 35P (2.5%), 90H (1%), SL 80-3 (0.05%) and progesterone (0.1%), indicated in the table above by t, was reconstituted in water to provide a clear and colourless solution with a progesterone concentration of 0.25% (i.e. 2500 ug/ml, 2.7% progesterone by dry weight).

[8] = Surf. Brij 35P 2.5%, lipid 90H 1.0%, co-surf. S LPC ca. 0.01% (as SL 80-3 0.05%), active agent 0.10%
[9] = cited from earlier work; remark: listed apart in the source
[10] = Appearance of aqueous gel preparations (Examples 10 and 11); type: physicochemical; conditions: Example 11: TECA and VC-P solutions mixed with Blanose 7HF gel with Nipaguard DMDMH
Method: (§1) A stock solution of surfactant, co-surfactant, lipid and active agent was initially prepared in water at double the desired final concentration. Briefly, co-surfactant, lipid and active agent were dissolved in ethanol, while heating (approximately 30° C.) and stirring. Surfactant material was then added whilst maintaining heat and stir conditions. Ethanol was subsequently removed via rotary evaporation and the resulting dry material was then resolubilized in water with warming (ca. 50° C.) at double the desired final concentration.
Nipaguard PDU was dissolved into water while heating (approximately 30° C.) and stirring. Blanose® 7HF was then added until a uniform gel was formed.
Solution A and Solution B were then mixed in equal volumes to produce the final preparation.
as §1, with “prepared.” for “prepared in water at double the desired final concentration.”, “four times” for “double”
A stock solution of surfactant, co-surfactant, lipid and active agent was initially prepared. […]

Compound: CCCCCCCCCCCCOS(=O)(=O)[O-].[Na+] [SDS, Sodium dodecyl sulphate]
Clarity ([1]; surfactant 2.5% w/w + lipid 90H 1.0% w/w in water): Cloudy
Clarity ([1]; surfactant 5.0% w/w + lipid 90H 1.0% w/w in water): Clear
Clarity [2]: Cloudy
Average Turbidity [3]: 26.2 FNU
Average HLB [4]: 40

Compound: Laureth-9 [P9641]
Average Turbidity [3]: >150 FNU
Average HLB [4]: 13.3

Compound: Laureth-10 [P9769]
Average Turbidity [3]: 14.02 FNU
Average HLB [4]: 13.5

Compound: Sodium deoxycholate [reference compound]
Average Turbidity [3]: 32.6 FNU
Average HLB [4]: 24

Compound: vitamin C dipalmitate [VC-P]
Appearance of cosmetic gel preparation [10]: clear and colourless aqueous gel

Second part, led by results:

Average Turbidity [3]: 23.3 FNU
Compound: C[C@H](CCC(=O)[O-])[C@H]1CC[C@H]2[C@@H]3[C@H](O)C[C@@H]4C[C@H](O)CC[C@]4(C)[C@H]3C[C@H](O)[C@]12C.[Na+] [Sodium cholate]

Average Turbidity [3]: 131 FNU
Compound: CCCCCCCCCCCCOCCOCCOCCOCCOCCOCCOCCOCCO [compound 74680, Laureth-8]
HLB number ([4]; literature or reported): 13.1
Average HLB [4]: 13.1

Active agent content of concentrated aqueous formulation [5]: at least 9.6 % by weight
Compound: Cc1cc(CC(C)CC(C)(C)C)n(O)c(=O)c1.NCCO (centres unmarked) [piroctone olamine]
Aqueous solubility with surfactant ([6]; 15% SDS, pH 7, room temperature): approximately 2.8%
Solubility ([6]; in 1,2-Propyleneglycol): 16.0%
Solubility ([6]; in Ethanol): 10.0%
Solubility ([6]; in Glycerol): 1.7%
Solubility ([6]; in Isopropanol): 5.0%
Solubility ([6]; in PEG-400): 1.9%
Solubility ([6]; in Water): 0.05%

Active agent by dry weight [7]: 2.7%
Turbidity (FNU) [8]: 34.20† FNU
Compound: CC(=O)[C@H]1CC[C@H]2[C@@H]3CCC4=CC(=O)CC[C@]4(C)[C@H]3CC[C@]12C [progesterone]
Active loading by dry weight ([9]; WO00/50007, 1.76 mg/ml using 198 mg of carrier): approximately 1.0%
Maximum concentration in aqueous dispersion ([9]; WO00/50007, using 198 mg of carrier): 1.76 mg/mL
Maximum concentration in aqueous dispersion ([9]; delivery system of WO00/50007 (Example 47), higher carrier concentration): 1.76 mg/mL
